We go through 3 compounds from ChEMBL document CHEMBL1158891, “Chemical and biological investigation of the fungus Pulveroboletus ravenelii” (J Nat Prod, 2003).

Assay [1] in a line: Inhibition of 7,12-dimethylbenz[a]anthracene-induced preneoplastic lesions in BALB/c mouse mammary gland culture after 1 to 10 days. It is filed as functional, tissue-based.
Assay [2] addresses T1, Prostaglandin G/H synthase 2 (Homo sapiens, UniProt P35354).
T1 sequence (P35354 whole entry): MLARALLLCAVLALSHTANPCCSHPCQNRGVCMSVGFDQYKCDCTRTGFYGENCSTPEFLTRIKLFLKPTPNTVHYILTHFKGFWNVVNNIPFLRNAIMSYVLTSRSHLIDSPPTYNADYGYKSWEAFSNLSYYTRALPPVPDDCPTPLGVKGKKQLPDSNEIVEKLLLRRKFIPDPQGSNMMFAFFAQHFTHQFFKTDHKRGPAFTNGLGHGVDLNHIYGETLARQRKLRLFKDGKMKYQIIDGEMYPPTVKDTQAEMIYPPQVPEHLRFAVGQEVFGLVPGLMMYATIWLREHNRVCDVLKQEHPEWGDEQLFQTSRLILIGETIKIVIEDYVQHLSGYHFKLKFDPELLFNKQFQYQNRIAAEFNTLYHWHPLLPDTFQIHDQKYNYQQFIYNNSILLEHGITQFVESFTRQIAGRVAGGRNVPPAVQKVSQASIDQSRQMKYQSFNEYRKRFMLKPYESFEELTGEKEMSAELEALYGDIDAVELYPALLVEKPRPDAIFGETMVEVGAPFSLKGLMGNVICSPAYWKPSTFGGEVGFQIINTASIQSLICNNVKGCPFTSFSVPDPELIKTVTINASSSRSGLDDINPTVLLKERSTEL
The assay can be described thus: Inhibition of COX2.

Assay [3] has as its target Prostaglandin G/H synthase 1 (Homo sapiens, UniProt P23219). The assay can be described thus: Inhibition of COX1.
The test system of assay [4] is Staphylococcus aureus. The assay can be described thus: Antimicrobial activity against Staphylococcus aureus. It is filed as functional, organism-based.

≈ marks a conversion by molar mass, not a printed value. Some results are limits rather than exact numbers.

Chain of Prostaglandin G/H synthase 1 (P23219 whole entry): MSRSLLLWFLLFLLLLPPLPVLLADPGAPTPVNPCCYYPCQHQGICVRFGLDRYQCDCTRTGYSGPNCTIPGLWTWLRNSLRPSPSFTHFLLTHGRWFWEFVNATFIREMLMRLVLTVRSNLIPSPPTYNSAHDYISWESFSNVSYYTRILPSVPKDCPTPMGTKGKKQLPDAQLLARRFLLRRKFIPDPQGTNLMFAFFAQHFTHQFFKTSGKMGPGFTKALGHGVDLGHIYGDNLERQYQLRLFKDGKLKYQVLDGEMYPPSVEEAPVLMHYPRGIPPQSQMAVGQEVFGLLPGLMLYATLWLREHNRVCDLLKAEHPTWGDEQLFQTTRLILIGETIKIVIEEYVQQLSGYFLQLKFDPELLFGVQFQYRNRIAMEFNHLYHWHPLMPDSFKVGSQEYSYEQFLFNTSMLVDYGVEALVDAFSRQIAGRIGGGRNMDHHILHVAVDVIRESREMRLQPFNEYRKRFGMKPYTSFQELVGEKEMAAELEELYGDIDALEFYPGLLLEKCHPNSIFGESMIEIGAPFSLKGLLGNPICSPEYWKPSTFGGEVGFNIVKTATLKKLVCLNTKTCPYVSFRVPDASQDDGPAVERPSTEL

As to `COC(=O)[C@@H](c1ccccc1)[C@@H](C1=C(O)/C(=C/c2ccccc2)OC1=O)c1ccccc1` [PULVERAVEN A], in assay [1], the IC50 (commonly the concentration needed to halve the response being measured) stood at 6 µg/mL (≈ 14.1 µM).

`COC(=O)[C@@H](c1ccccc1)[C@H](C1=C(O)/C(=C/c2ccccc2)OC1=O)c1ccccc1` [PULVERAVEN B]: the IC50 is over 234 µM in assay [2], over 234 µM in assay [3] and 0.8 µg/mL (≈ 1.88 µM) in assay [1].

As to `COC(=O)/C(=C1/OC(=O)C(c2ccccc2)=C1O)c1ccccc1` [VULPINIC ACID], the IC50 in assay [4] is 20 µg/mL (≈ 62.1 µM); in assay [3], 676 µM; in assay [1], over 10 µg/mL.
